Experimental findings from ChEMBL document CHEMBL1641546, “The discovery and structure-activity relationships leading to CE-156811, a difluorophenyl cyclopropyl fluoroether: a novel potent antibacterial analog derived from hygromycin A” (Bioorg Med Chem Lett, 2011) are described below.

Values after ≈ are worked out from the molar mass of the structure shown. Active and inactive are the calls of the source. The calls are words filed in the database; no cut-off is given here.

The test system of data set [1] is Streptococcus pneumoniae. As to the kind of experiment: Antibacterial activity against Streptococcus pneumoniae 1016. In kind it is functional.
Data set [2] deals with Enterococcus faecium. As to the kind of experiment: Antibacterial activity against Enterococcus faecium 1022. In kind it is functional.
In data set [3] the test system is Enterococcus faecalis. Nature of the data set: Antibacterial activity against Enterococcus faecalis 1085. The format is functional.
In data set [4] the test system is Staphylococcus aureus. Nature of the data set: Antibacterial activity against Staphylococcus aureus 1095. The format is functional.
The test system of data set [5] is Streptococcus pneumoniae. Nature of the data set: Antibacterial activity against penicillin-resistant Streptococcus pneumoniae. The format is functional.
Data set [6] concerns Staphylococcus epidermidis. As to the kind of experiment: Antibacterial activity against methicillin-sensitive Staphylococcus epidermidis. The format is functional.
Data set [7] can be described thus: Half life in dog. The following applies: in vivo. The format is ADME, organism-based, Canis lupus familiaris.
The test system of data set [8] is Enterococcus faecalis. As to the kind of experiment: Antibacterial activity against multidrug-resistant Enterococcus faecalis. In kind it is functional.
The test system of data set [9] is Staphylococcus aureus. As to the kind of experiment: Antibacterial activity against methicillin-resistant Staphylococcus aureus. The format is functional.
Data set [10] can be described thus: Clearance in rat. The format is ADME, organism-based. The settings on record: in vivo.
Data set [11] has as its system Staphylococcus aureus. As to the kind of experiment: Antibacterial activity against glycopeptide-intermediate Staphylococcus aureus. The format is functional.
The nature of data set [12]: Volume of distribution at steady state in dog. The format is ADME, organism-based, Canis lupus familiaris. The following applies: in vivo, read-out: Vdss.
The test system of data set [13] is Staphylococcus aureus. As to the kind of experiment: Antibacterial activity against Staphylococcus aureus infected in sc dosed in vivo acute model administered bid for 1 day. The format is functional. The settings on record: 24 h, read-out: PD50.
A short description of data set [14]: Oral bioavailability in rat at 10 mg/kg, po and 5 mg/kg, iv. In kind it is ADME, organism-based. The settings on record: in vivo.
Data set [15] deals with Enterococcus faecium. Nature of the data set: Antibacterial activity against Enterococcus faecium infected in sc dosed in vivo acute model administered bid for 1 day. The settings on record: 24 h, read-out: PD50. The format is functional.
Data set [16] relates to Staphylococcus aureus. Nature of the data set: Antibacterial activity against methicillin-sensitive Staphylococcus aureus. In kind it is functional.
A short description of data set [17]: Half life in mouse. The format is ADME, organism-based. The following applies: in vivo.
Data set [18] can be described thus: Oral bioavailability in mouse. The format is ADME, organism-based. The settings on record: in vivo.
In data set [19] the test system is Streptococcus pneumoniae. Nature of the data set: Antibacterial activity against Streptococcus pneumoniae infected in sc dosed in vivo lung model administered bid for 3 day. In kind it is functional. The following applies: 72 h, read-out: PD50.
Data set [20] can be described thus: Clearance in monkey. The format is ADME, organism-based, Macaca mulatta. The settings on record: rhesus monkey, in vivo.
Data set [21] has as its system Streptococcus pyogenes. As to the kind of experiment: Antibacterial activity against Streptococcus pyogenes infected in sc dosed in vivo acute model administered bid for 1 day. In kind it is functional. The following applies: 24 h, read-out: PD50.
Data set [22] is described as follows: Volume of distribution at steady state in rat. The format is ADME, organism-based. The following applies: in vivo, read-out: Vdss.
The nature of data set [23]: Volume of distribution at steady state in mouse. The following applies: in vivo, read-out: Vdss. In kind it is ADME, organism-based.
Data set [24] can be described thus: Half life in rat. In kind it is ADME, organism-based. The settings on record: in vivo.
Data set [25] is described as follows: Half life in monkey. In kind it is ADME, organism-based, Macaca mulatta. The settings on record: rhesus monkey, in vivo.
The nature of data set [26]: Volume of distribution at steady state in monkey. In kind it is ADME, organism-based, Macaca mulatta. The settings on record: rhesus monkey, in vivo; read-out: Vdss.
In data set [27] the test system is Enterococcus faecium. Nature of the data set: Antibacterial activity against multidrug-resistant Enterococcus faecium. The format is functional.
A short description of data set [28]: Clearance in dog. The following applies: in vivo. In kind it is ADME, organism-based, Canis lupus familiaris.
A short description of data set [29]: Clearance in mouse. In kind it is ADME, organism-based. The following applies: in vivo.
In data set [30] the test system is Enterococcus faecalis. As to the kind of experiment: Antibacterial activity against Enterococcus faecalis infected in sc dosed in vivo acute model administered bid for 1 day. The format is functional. The following applies: 24 h, read-out: PD50.
Data set [31] deals with Enterococcus faecium. Nature of the data set: Antibacterial activity against Enterococcus faecium infected in po dosed in vivo acute model administered bid for 1 day. In kind it is functional. The settings on record: 24 h, read-out: PD50.
Data set [32] has as its system Enterococcus faecalis. Nature of the data set: Antibacterial activity against Enterococcus faecalis infected in po dosed in vivo acute model administered bid for 1 day. The following applies: 24 h, read-out: PD50. In kind it is functional.
Data set [33] deals with Streptococcus pneumoniae. Nature of the data set: Antibacterial activity against Streptococcus pneumoniae infected in po dosed in vivo lung model administered bid for 3 day. The settings on record: 72 h, read-out: PD50. In kind it is functional.
The test system of data set [34] is Streptococcus pyogenes. Nature of the data set: Antibacterial activity against Streptococcus pyogenes infected in po dosed in vivo acute model administered bid for 1 day. In kind it is functional. The following applies: 24 h, read-out: PD50.

Usually MIC stands for the least concentration at which growth counts as inhibited. On to `C/C(=C\c1cc(F)c(OCC(C)F)cc1F)C(=O)N[C@@H]1[C@H](O)[C@@H](O)[C@H]2OCO[C@H]2[C@@H]1O` (some centres not stated), for which the minimal inhibitory concentration (MIC) is 60.2 µg/mL (≈ 135 µM) in [1], 3.13 µg/mL (≈ 7 µM) in data set [2], 60.2 µg/mL (≈ 135 µM) in data set [3] and 6.25 µg/mL (≈ 14 µM) in data set [4].

Regarding `C/C(=C\c1cc(F)c(OCCF)cc1F)C(=O)N[C@@H]1[C@H](O)[C@@H](O)[C@H]2OCO[C@H]2[C@@H]1O`, the MIC in data set [1] amounted to 6.2 µg/mL (≈ 14.3 µM); in data set [2], 25 µg/mL (≈ 57.7 µM); in data set [3], 25 µg/mL (≈ 57.7 µM); in [4], 50 µg/mL (≈ 115 µM).

For `C/C(=C\c1cc(F)c(OCC2CCC2)cc1F)C(=O)N[C@@H]1[C@H](O)[C@@H](O)[C@H]2OCO[C@H]2[C@@H]1O`, the MIC was 6.2 µg/mL (≈ 13.6 µM) in [1], 6.2 µg/mL (≈ 13.6 µM) in [2], 12.5 µg/mL (≈ 27.4 µM) in [3] and 12.5 µg/mL (≈ 27.4 µM) in data set [4].

Turning to `C/C(=C\c1cc(F)c(OCC2(F)CCC2)cc1F)C(=O)N[C@@H]1[C@H](O)[C@@H](O)[C@H]2OCO[C@H]2[C@@H]1O`, the MIC in [1] is 3.1 µg/mL (≈ 6.55 µM); in data set [2] it was 6.2 µg/mL (≈ 13.1 µM); in data set [3], 6.2 µg/mL (≈ 13.1 µM); in data set [4] it was 6.2 µg/mL (≈ 13.1 µM).

With `C/C(=C\c1cc(F)c(OCC(F)C2CC2)cc1F)C(=O)N[C@@H]1[C@H](O)[C@@H](O)[C@H]2OCO[C@H]2[C@@H]1O` (some centres not stated), the MIC came to 0.4 µg/mL (≈ 0.845 µM) in data set [1], 1.6 µg/mL (≈ 3.38 µM) in [2], 1.6 µg/mL (≈ 3.38 µM) in data set [3] and 1.56 µg/mL (≈ 3.3 µM) in [4].

Take `C/C(=C\c1cc(F)c(OCCC(C)(C)F)cc1F)C(=O)N[C@@H]1[C@H](O)[C@@H](O)[C@H]2OCO[C@H]2[C@@H]1O`: the MIC in data set [1] stood at 25 µg/mL (≈ 52.6 µM); in data set [2] it was 50 µg/mL (≈ 105 µM); in data set [3] it was 100 µg/mL (≈ 210 µM); in [4], 100 µg/mL (≈ 210 µM).

For orientation: MIC90 means the lowest concentration that inhibits either 90% of growth or 90% of the strains tested, depending on the study. By half-life is commonly meant the time in which the quantity being followed falls by half. As a reminder, the clearance is the rate of elimination divided by the concentration. For orientation: bioavailability means the share of a dose that reaches the circulation, judged against a reference dose that is usually intravenous. On to `C/C(=C\c1cc(F)c(OC[C@H](F)C2CC2)cc1F)C(=O)N[C@@H]1[C@H](O)[C@@H](O)[C@H]2OCO[C@H]2[C@@H]1O`, for which the MIC90 in data set [5] was found to be 0.5 µg/mL (≈ 1.06 µM); in [6], 0.25 µg/mL (≈ 0.528 µM); in data set [8], 0.5 µg/mL (≈ 1.06 µM); in data set [9], 0.5 µg/mL (≈ 1.06 µM); in [11], 0.125 µg/mL (≈ 0.264 µM); in data set [16] it was 1 µg/mL (≈ 2.11 µM). Besides, the MIC90 in [27] came to 1 µg/mL (≈ 2.11 µM). Also, the half-life in data set [7] was 1.9 h; in data set [17] it was 1.4 h; in data set [24], 1.3 h; in [25], 1 h. For the same molecule, the clearance in data set [10] worked out at 10.5 mL/min/kg; in data set [20] it was 8.6 mL/min/kg; in data set [28] it was 5.4 mL/min/kg; in [29] it was 12.1 mL/min/kg. Besides, the Vd in data set [12] was found to be 0.71 L/kg; in data set [22] it was 0.5 L/kg; in [23] it was 0.52 L/kg; in data set [26], 0.59 L/kg. In addition, the ED50 in [13] came out at 4 mg/kg; in data set [15], 8 mg/kg; in [19], 23 mg/kg; in data set [21], 3 mg/kg; in data set [30], 10 mg/kg. Besides, the values for the bioavailability in data set [14] and in [18] were 56% and 55%, respectively.

In the case of `C/C(=C\c1cc(F)c(OCCCF)cc1F)C(=O)N[C@@H]1[C@H](O)[C@@H](O)[C@H]2OCO[C@H]2[C@@H]1O`, the minimal inhibitory concentration (MIC) was 2 µg/mL (≈ 4.47 µM) in [1], 0.78 µg/mL (≈ 1.74 µM) in data set [2], 1.56 µg/mL (≈ 3.49 µM) in data set [3] and 1.56 µg/mL (≈ 3.49 µM) in data set [4].

With `CC(=O)NC[C@H]1CN(c2ccc(N3CCOCC3)c(F)c2)C(=O)O1` [LINEZOLID], the ED50 came out at 4 mg/kg in data set [31], 3 mg/kg in data set [32], 10 mg/kg in data set [33] and 3 mg/kg in data set [34]. Moreover, the MIC90 in [5] came to 1 µg/mL (≈ 2.96 µM); in [6], 1 µg/mL (≈ 2.96 µM); in data set [8], 1 µg/mL (≈ 2.96 µM); in data set [9] it was 1 µg/mL (≈ 2.96 µM); in data set [11], 0.5 µg/mL (≈ 1.48 µM); in data set [16], 2 µg/mL (≈ 5.93 µM). The molecule also yielded an MIC90 in [27] of 2 µg/mL (≈ 5.93 µM).

Consider `C/C(=C\c1cc(F)c(OCCC(F)F)cc1F)C(=O)N[C@@H]1[C@H](O)[C@@H](O)[C@H]2OCO[C@H]2[C@@H]1O`, for which the MIC in [1] was determined as 1.56 µg/mL (≈ 3.35 µM); in data set [2], 3.13 µg/mL (≈ 6.73 µM); in data set [3] it was 12.5 µg/mL (≈ 26.9 µM); in data set [4] it was 12.5 µg/mL (≈ 26.9 µM).

Regarding `CCOc1cc(F)c(/C=C(\C)C(=O)N[C@@H]2[C@H](O)[C@@H](O)[C@H]3OCO[C@H]3[C@@H]2O)cc1F`, the MIC result in [1] was “inactive”. The results for the minimum inhibitory concentration (MIC) in [2], in data set [3] and in [4] were 12.5 µg/mL (≈ 30.1 µM), 25 µg/mL (≈ 60.2 µM) and 100 µg/mL (≈ 241 µM), respectively.

In the case of `C/C(=C\c1cc(F)c(OCCO)cc1F)C(=O)N[C@@H]1[C@H](O)[C@@H](O)[C@H]2OCO[C@H]2[C@@H]1O`, the MIC result in data set [1] was “inactive”. In addition, the minimal inhibitory concentration (MIC) was greater than 100 µg/mL in [2], greater than 100 µg/mL in data set [3] and 100 µg/mL (≈ 232 µM) in data set [4].
